These results are taken from patent US20150005348A1, “AMIDE COMPOUND AND USE THEREOF FOR PEST CONTROL” (SUMITOMO CHEMICAL COMPANY, LIMITED, priority 2012, published 2015).

The subject of this experiment is last instar larvae of common house mosquitos (Culexpipienspallens). Description: Larval mortality test on common house mosquitos in treated water (Test Example 5). The experiment is classed as in vivo. As to conditions: Culicidae, 192 h; active ingredient 3.5 ppm in ion-exchanged water; 20 last instar larvae; observed after 8 days. As for the experimental part: Each of the formulations of Compounds (4), (5), (11) and (12) of the present invention obtained in Formulation Example 15 was diluted with water, so as to have a concentration of active ingredient of 500 ppm, to prepare a test drug solution.
0.7 ml of the test drug solution was added to 100 ml of ion-exchanged water (a concentration of active ingredient of 3.5 ppm).

A word on the mortality: it is the percentage killed. Regarding `O=C(/C=C/CCCCCCCc1ccccc1)NCC1CCOC1` (stereo not shown) [Compound (5), (E)-N-(tetrahydrofuran-3-ylmethyl)-10-phenyl-2-deceneamide], the mortality at 3.5 ppm was at least 95%. In turn, `O=C(/C=C/CCCCCCc1ccccc1)NCC1CCOCC1` [Compound (11), (E)-N-(tetrahydropyran-4-ylmethyl)-9-phenyl-2-noneneamide] displayed a mortality at 3.5 ppm of at least 95%. The figure for `C/C(=C\C(=O)NCC1CCOCC1)CCCc1ccccc1` [Compound (12), (E)-N-(tetrahydropyran-4-ylmethyl)-3-methyl-6-phenyl-2-hexeneamide] is at least 95%; for `O=C(/C=C/CCCCCCc1ccccc1)NCC1CCOC1` (stereo not shown) [Compound (4), (E)-N-(tetrahydrofuran-3-ylmethyl)-9-phenyl-2-noneneamide] it is at least 95%.
